Measured values published in ChEMBL document CHEMBL1201862, “PubChem BioAssay data set” (2004).
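A five-concentration, 48-hour dose response in 96-well plates underlies each endpoint, interpolated linearly between surrounding concentrations. GI50 = concentration required for 50% inhibition of growth.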 The source made the active and inactive calls. Rule as the data show it: active = GI50 up to about 1.1 µM and inactive = higher.

Key:
Test in all cases: NCI-60 cell line screen, 48 h
A549 = system: A549
ACHN = system: ACHN
HL-60 = system: HL-60
HOP-62 = system: HOP-62
HOP-92 = system: HOP-92
HT-29 = system: HT-29
KM12 = system: KM12
LOX IMVI = system: LOX IMVI
Malme-3M = system: Malme-3M
NCI-H460 = system: NCI-H460
OVCAR-4 = system: OVCAR-4
RPMI-8226 = system: RPMI-8226
SF-268 = system: SF-268
SK-OV-3 = system: SK-OV-3
SN12C = system: SN12C
SW-620 = system: SW-620
UO-31 = system: UO-31

Measured: GI50

Cn1ccnc1CCc1c(Cl)cccc1Cl
inactive: A549 > 100 µM | ACHN > 100 µM | HL-60 > 100 µM | HOP-62 > 100 µM | HOP-92 52.1 µM | HT-29 > 100 µM | KM12 > 100 µM | LOX IMVI > 100 µM | Malme-3M > 100 µM | NCI-H460 > 100 µM | OVCAR-4 > 100 µM | RPMI-8226 > 100 µM | SF-268 > 100 µM | SK-OV-3 > 100 µM | SN12C > 100 µM | SW-620 > 100 µM | UO-31 71.3 µM

CC1=C(C(=O)Nc2cc(=O)n(C)c(=O)n2C)C(c2cccc([N+](=O)[O-])c2)C(C(=O)Nc2cc(=O)n(C)c(=O)n2C)=C(C)N1
inactive: A549 > 100 µM | ACHN 89.7 µM | HL-60 > 100 µM | HOP-62 > 100 µM | HOP-92 58.7 µM | HT-29 > 100 µM | KM12 > 100 µM | LOX IMVI > 100 µM | Malme-3M > 100 µM | NCI-H460 62.7 µM | OVCAR-4 > 100 µM | RPMI-8226 62.5 µM | SF-268 > 100 µM | SK-OV-3 > 100 µM | SN12C > 100 µM | SW-620 > 100 µM | UO-31 56.1 µM

O=C1CCC2(CC1)SCCCS2
inactive: A549 > 100 µM | ACHN 40 µM | HL-60 > 100 µM | HOP-62 > 100 µM | HOP-92 > 100 µM | HT-29 > 100 µM | KM12 > 100 µM | LOX IMVI > 100 µM | Malme-3M > 100 µM | NCI-H460 > 100 µM | OVCAR-4 > 100 µM | RPMI-8226 > 100 µM | SF-268 > 100 µM | SK-OV-3 > 100 µM | SN12C > 100 µM | SW-620 > 100 µM | UO-31 > 100 µM

O=C1c2ccccc2CC1C1(O)C(=O)Nc2ccccc21 (stereo not given)
inactive: A549 > 100 µM | ACHN > 100 µM | HL-60 > 100 µM | HOP-62 > 100 µM | HOP-92 > 100 µM | HT-29 > 100 µM | LOX IMVI > 100 µM | Malme-3M > 100 µM | NCI-H460 > 100 µM | OVCAR-4 > 100 µM | RPMI-8226 > 100 µM | SF-268 > 100 µM | SK-OV-3 > 100 µM | SN12C > 100 µM | SW-620 > 100 µM | UO-31 34.6 µM

N#C/C(=C\c1c(O)cc(O)cc1O)C(N)=O
inactive: A549 > 100 µM | ACHN > 100 µM | HL-60 > 100 µM | HOP-62 > 100 µM | HOP-92 > 100 µM | HT-29 > 100 µM | KM12 > 100 µM | LOX IMVI > 100 µM | Malme-3M > 100 µM | NCI-H460 > 100 µM | OVCAR-4 > 100 µM | RPMI-8226 > 100 µM | SF-268 > 100 µM | SK-OV-3 > 100 µM | SN12C > 100 µM | SW-620 > 100 µM | UO-31 > 100 µM

O=C1N[C@H](Cc2c[nH]cn2)C(=O)N2CCC[C@@H]12
inactive: A549 > 100 µM | ACHN > 100 µM | HL-60 > 100 µM | HOP-62 > 100 µM | HOP-92 > 100 µM | KM12 > 100 µM | LOX IMVI > 100 µM | Malme-3M > 100 µM | NCI-H460 > 100 µM | OVCAR-4 > 100 µM | RPMI-8226 > 100 µM | SF-268 > 100 µM | SK-OV-3 > 100 µM | SN12C > 100 µM | SW-620 > 100 µM | UO-31 > 100 µM

Cc1cc(Cl)cc2c1NC(=O)C2(O)CC(=O)c1ccc(Br)cc1 (stereo not given)
inactive: A549 > 100 µM | ACHN 39.4 µM | HL-60 16.9 µM | HOP-62 > 100 µM | HOP-92 94.4 µM | HT-29 49.9 µM | KM12 46.9 µM | LOX IMVI 38.5 µM | Malme-3M > 100 µM | NCI-H460 55.7 µM | OVCAR-4 14.2 µM | RPMI-8226 35 µM | SF-268 > 77.8 µM | SK-OV-3 > 100 µM | SN12C > 77.1 µM | SW-620 > 90.6 µM | UO-31 > 100 µM

CCOC(=O)c1c[nH]c2c(ccc3nn(C)nc32)c1=O
inactive: A549 34 µM | ACHN > 100 µM | HL-60 57.3 µM | HOP-62 > 100 µM | HOP-92 > 100 µM | HT-29 > 100 µM | KM12 > 100 µM | LOX IMVI 10 µM | Malme-3M > 100 µM | NCI-H460 96.4 µM | RPMI-8226 25.6 µM | SF-268 > 100 µM | SK-OV-3 > 100 µM | SN12C > 100 µM | SW-620 20.1 µM | UO-31 > 100 µM

Cc1cc(Cl)ccc1NC(=O)/C(=N\NC(C)(C)C)C(C#N)c1nc(-c2ccc([N+](=O)[O-])cc2)cs1 (stereo not given)
inactive: A549 > 100 µM | ACHN > 100 µM | HL-60 > 100 µM | HOP-62 > 100 µM | HOP-92 > 100 µM | HT-29 > 100 µM | KM12 > 100 µM | LOX IMVI > 100 µM | Malme-3M > 100 µM | NCI-H460 > 100 µM | OVCAR-4 > 100 µM | RPMI-8226 > 100 µM | SF-268 > 100 µM | SK-OV-3 > 100 µM | SN12C > 100 µM | SW-620 > 100 µM | UO-31 > 100 µM

Cc1c(C(=O)CC(=O)C(=O)Nc2ccc(Cl)c(Cl)c2)[n+]([O-])c2ccccc2[n+]1[O-]
inactive: A549 27 µM | ACHN 20.3 µM | HL-60 17.8 µM | HOP-62 64.4 µM | HOP-92 27.5 µM | HT-29 29.9 µM | KM12 25.1 µM | LOX IMVI 21.1 µM | Malme-3M 18.8 µM | NCI-H460 24.7 µM | OVCAR-4 15.2 µM | RPMI-8226 20.8 µM | SF-268 29.1 µM | SK-OV-3 41.6 µM | SN12C 23.8 µM | SW-620 25.1 µM | UO-31 55.1 µM

Oc1ccccc1/C=C/c1csnn1
inactive: A549 > 100 µM | ACHN > 100 µM | HL-60 39.4 µM | HOP-62 > 100 µM | HOP-92 > 100 µM | HT-29 > 100 µM | KM12 > 100 µM | LOX IMVI > 52.1 µM | Malme-3M > 100 µM | NCI-H460 > 69.7 µM | OVCAR-4 > 100 µM | RPMI-8226 > 100 µM | SF-268 > 100 µM | SK-OV-3 > 100 µM | SN12C > 100 µM | SW-620 > 65.9 µM | UO-31 > 100 µM

COc1ccccc1/C=C/C(=O)c1sc(-c2cccnc2)nc1C
inactive: A549 > 100 µM | ACHN > 100 µM | HL-60 > 100 µM | HOP-62 > 100 µM | HOP-92 > 100 µM | HT-29 > 100 µM | KM12 65.2 µM | LOX IMVI > 100 µM | Malme-3M > 100 µM | NCI-H460 > 100 µM | RPMI-8226 26.3 µM | SF-268 > 100 µM | SK-OV-3 > 100 µM | SN12C > 100 µM | SW-620 > 100 µM | UO-31 > 100 µM
